From patent US20110028554A1, “PHARMACEUTICAL COMPOSITIONS COMPRISING DIIODOTHYRONINE AND THEIR THERAPEUTIC USE” (UNIVERSITE JOSEPH FOURIER, priority 2007, published 2011)
Entries after “also recorded” stand apart in the source; their conditions may differ.

Experiments:
[1] = Body composition (adipose tissues, skeletal muscles, brown adipose tissue) of Wistar rats; type: in vivo
Description: (§1) At the end of the experimental period, animals were sacrificed by decapitation, in order to avoid the well-known effects of general anesthetics on mitochondrial metabolism. Blood, samples were immediately collected and plasma was frozen for subsequent determination of serum metabolites and hormones. Liver, muscles and fat depots were quickly excised and weighed. Liver median lobe was rapidly freeze-clamped. Muscles (plantaris, soleus and gastrocnemius) were frozen in isopentane precooled in liquid nitrogen. Mesenteric fat consisted, of adipose tissue surrounding the gastro-intestinal tract from the gastro-oesophageal sphincter to the end of the rectum with special care taken in distinguishing and removing the pancreas. Retroperitoneal fat pad was taken as the distinct depot behind each kidney along the lumbar muscles. Epididymal fat consisted, of adipose tissue on top of the epididymis. For subcutaneous depot measurement, a rectangular piece of skin was taken on the right side of each animal from the median line of the abdomen between the spine and the right hip to the first rib. Interscapular brown adipose tissue was removed and dissected free from adjacent muscles and white adipose tissue. The heart ventricles, the right kidney and the spleen were also excised, weighed and frozen.

[2] = Body weight and food intake of Zucker rats; type: in vivo; conditions: Zucker (Fa/Fa) rats, 30 days, FIG. 8 legend high dosage 25 μg/100 g BW
Procedure: (§2) Adult male rat bred in the animal room facilities of Laboratory of Fundamental and Applied. Bioenergetics (Wistar strain) or purchased from Charles-River Laboratories, Domaine des oncins, L'ARBRESLE France [(genetically obese normoglycemic (Zucker or Fa/Fa) or diabetic (ZDF)] were caged individually in stainless steel hanging cages and maintained in a 22° C., 50±10% relative humidity and 12 h:12 h light:dark environment. All animals were fed ad libitum with a standard rat chow (Safe A04, Villemoisson, France) and tap water. Body mass and food intake were recorded twice/thrice a week and fresh food was provided, at the same time to ensure minimal disturbance to the animals' food, behavior.
Eight-week old rats (300 g±10 g) were anesthetized by simultaneous intraperitoneal injection of diazepam 4 mg/kg and ketamine 100 mg/kg. In order to maintain body temperature during the surgery (10 min), animals were placed on a warm blanket. After interscapular shaving, a small incision of 0.5 cm of the skin allows the subcutaneous implantation of a small pellet (containing rT3 or 3′,3-T2) with a 10-gauge precision trochar. The pellets, manufactured by Innovative Research of America (Sarasota, Fla., USA) are constituted of a biodegradable matrix that effectively and continuously release the active product in the animal. […]

[3] = Blood glucose in Goto-Kakizaki (GK) rats; type: in vivo; conditions: low dosage 2.5 μg/100 g BW, 10 days, n=5, p<0.01
Procedure: (§3) Rats were genetically obese normoglycemic (Zucker or Fa/Fa), 10-11 week-old diabetic rats (ZDF) or genetic non-overweight diabetic (type 2 diabetes) rats (Goto-Kakizaki (GK) model).
(§4) The day of the study, after a fasted period overnight (18 h), blood samplings will be taken in awake rats from the tail vein.
(§5) Glucose and 3-hydroxybutyrate (3-HB) were measured, enzymatically and non esterified fatty acid (NEFA) by colorimetric assay (Wako Chemicals).

[4] = Food intake of Wistar rats; type: in vivo
Procedure: as §2
Eight-week old rats (300 g±10 g) were anesthetized by simultaneous intraperitoneal injection of diazepam 4 mg/kg and ketamine 100 mg/kg. In order to maintain body temperature during the surgery (10 min), animals were placed on a warm blanket. After interscapular shaving, a small incision of 0.5 cm of the skin allows the subcutaneous implantation of a small pellet (containing rT3 or 3′,3-T2) with a 10-gauge precision trochar. The pellets, manufactured by Innovative Research of America (Sarasota, Fla., USA) are constituted of a biodegradable matrix that effectively and continuously release the active product in the animal.
3-5 diiodothyronine (3-5 T2) or 3-3′diiodothyronine (3-3′ T2) were used at different doses (5, 0.5, or 0.1 mg/pellet) were implanted in order to provide a continuous and constant drug delivery over 60 days (which represents 25 μg, 2.5 μg or 0.5 μg/day/100 g BW).

muscle mitochondria = experiment: Muscle mitochondrial oxygen consumption (JO2) of treated Wistar rats; type: in vivo
Procedure: All measurements were performed using mitochondria (0.2 mg mitochondrial protein/ml) incubated with various substrates: • GM: glutamate/malate (5 mM/2.5 mM) • SR: succinate/rotenone (5 mM/5 μM), • GMS: glutamate/malate/succinate (5 mM/2.5 mM/5 mM), • Palm: palmitoyl carnitine (55 μM), • Octa: octanoyl carnitine (100 μM), • TMPD/AsC: TMPD/ascorbate (0.5 mM/0.5 mM), and • TMPD/AsC/DNP: TMPD/ascorbate/DNP (0.5 mM/0.5 mM/75 μM).
JO2 was recorded in the presence of the substrate and following the addition of 1 mM ADP (state 3).
The oligomycin was added to the mitochondrial suspension to determine the non-phosphorylating respiratory rate (state 4).
The major part of the liver and the red part of each quadriceps were rinsed, and chopped into isolation medium (250 mM sucrose, 20 mM Tris-HCl and 1 mM EGTA-Tris, pH 7.4). Nuclei and cell debris were removed, by centrifugation at 800 g for 10 min. Mitochondria were then isolated from the supernatant by spinning twice at 8,000 g for 10 minutes. The mitochondrial pellet was resuspended in 0.5 ml of isolation buffer and kept on ice. Mitochondrial protein was measured by the bicinchoninic acid method (Pierce, Rockford, Ill.). The final mitochondrial suspensions were maintained on ice and were used for measurements of oxygen consumption rate and reactive oxygen species (ROS) production.
The rate of mitochondrial oxygen consumption (JO2) was measured at 30° C. in an incubation chamber with a Clark-type O2 electrode filled with 2 ml of incubation medium (125 mM KCl, 10 mM Pi-Tris, 20 mM Tris-HCl, 0.1 mM EGTA, pH 7.2). All measurements were performed using mitochondria (1.0 or 0.2 mg mitochondrial protein/ml for liver and skeletal muscle) incubated either with various substrates: glutamate/malate (5 mM/2.5 mM) and succinate (5 mM), alone or in combination, palmitoyl carnitine (55 μM) and octanoyl carnitine (100 μM). For each substrate, JO2 was recorded in the presence of the substrate alone (State 2) and following the addition of 1 mM ADP (state 3). Oligomycin (1.25 μg/mg protein) was added to the mitochondrial suspension to determine the non-phosphorylating respiratory rate (state 4). The incubation medium was constantly stirred with a built-in electromagnetic stirrer and bar flea. The efficiency of the mitochondrial oxidative phosphorylation was assessed by the state 3/state 4 ratio which measures the degree of control imposed on oxidation by phosphorylation (respiratory control ratio, RCR).

[5] = Blood parameters (glucose, HbA1c, insulin, cholesterol, triglycerides) in ZDF rats; type: in vivo, Zucker Diabetic fatty (ZDF) rats; conditions: high dosage 25 μg/100 g BW
Procedure: as §3, §4
The following biochemical parameters were analyzed: glycemia, insulinemia, HbA1c, TG and Cholesterol.
Insulin levels were determined with commercial kits (Linco Research).
as §5
(§6) Triglycerides and cholesterol were measured by classical routine automate apparatus.

[6] = Plasmatic concentrations of glucose, triglycerides, cholesterol, FFA and HDL on the day of sacrifice; type: in vivo, Wistar, Zucker and ZDF rats
Description: These measurements were done on venous blood of the rats the day of the sacrifice.
as §1, §5, §6

SMILES: N[C@@H](Cc1cc(I)c(Oc2ccc(O)cc2)c(I)c1)C(=O)O [3,5-T2, 3,5-diiodothyronine]
- Brown adipose tissue weight vs placebo ([1]; high dosage 25 μg/100 g BW): significantly increased
- Fat masses, all localizations (retroperitoneal, epididymal, mesenteric, subcutaneous) vs placebo ([1]; high dosage 25 μg/100 g BW): significantly lower
- Muscle mass / lean body mass vs placebo ([1]; high dosage 25 μg/100 g BW): not affected at all
- Fat mass vs placebo ([1]; low dosage 2.5 μg/100 g BW): significantly decreased
- Lean body mass vs placebo ([1]; low dosage 2.5 μg/100 g BW): not affected
- Food intake vs placebo [2]: significantly lower as compared to placebo
- Animal growth (body weight) vs placebo ([2]; text says low 3,5-T2 group): no significant growth
- Change in blood glucose concentration as compared to control animals [3]: −24±6%
- Food intake vs placebo ([4]; high dosage 25 μg/100 g BW): a clear increase was observed
- Food intake vs placebo ([4]; low dosage 2.5 μg/100 g BW): almost not affect
- Muscle mitochondrial respiration, non-phosphorylating (state 4), vs placebo (muscle mitochondria; high dosage 25 μg/100 g BW): failed to substantially affect
- Muscle mitochondrial respiration, phosphorylating (state 3), vs placebo (muscle mitochondria; high dosage 25 μg/100 g BW): failed to substantially affect
- Muscle mitochondrial respiration, non-phosphorylating (state 4), vs placebo (muscle mitochondria; low dosage 2.5 μg/100 g BW): failed to substantially affect
- Muscle mitochondrial respiration, phosphorylating (state 3), vs placebo (muscle mitochondria; low dosage 2.5 μg/100 g BW): failed to substantially affect
- Plasmatic cholesterol at the end of the treatment vs placebo [5]: significantly lower
- Plasmatic triglycerides at the end of the treatment vs placebo [5]: not different between the two groups
- Glycated hemoglobin (HbA1c) ([5]; 4 weeks): significant decrease
- Plasmatic insulin concentration ([5]; 4 weeks): maintenance of insulin concentration at a high level; also recorded: increasing plasmatic insulin concentration
- Plasmatic glucose concentration ([5]; from week 1 over 4 weeks): dramatic decrease; also recorded: decreasing glucose concentration
- Plasmatic glucose at the end of the treatment ([6]; non-diabetic Wistar rats, low dosage 2.5 μg/100 g BW): minor changes
- Plasmatic glucose at the end of the treatment ([6]; non-diabetic Zucker rats, 25 μg/100 g BW): minor changes
